Consider 87 molecules from a melting point compilation (Tetko et al.; mined from patent text by program, amines drawn as free bases though some values may be those of a salt).

As usually defined, the melting point is the temperature of the solid-liquid transition. `CC(C)OC1CC(O)C(=O)N1S(=O)(=O)c1ccccc1` (configuration not stated): the melting point lay within 127 to 129 °C. For `Cn1c(-c2ccc3ccccc3c2)n[nH]c1=S` the value was 223 to 225 °C. To `CCOC(=O)/C=C(/c1ccc(OC)cc1)c1cccc(C#N)c1` belongs 105 to 106 °C. For `Cn1ncc(/C=C/C(=O)Nc2ccc(Cn3ccnc3)cc2)c1-c1ccc(F)cc1` the value was 213 to 214 °C; for `Cc1cc(C)c2c(c1O)C(NC(=O)CN1CCN(c3cccc(Cl)c3)CC1)C(C)(C)C2` (configuration not stated), 125 to 126 °C.

In turn, `Cc1ccc2c(N3CCc4ccc(Cl)cc43)ncnc2c1` showed a melting point of 265 °C. To `COc1cc(-c2nc(N)sc2CCC2CCCCC2)c(OC)cc1C` belongs 112 °C; to `CC(=O)C(CSC(=S)N(C)C)=C(C)O`, 70 to 72 °C; to `COc1ccc(S(=O)(=O)C2(CCC/C=C/c3ccc(Cl)cc3)SC(=O)NC2=O)cc1` (configuration not stated), 182 to 184 °C. `CCn1cc(C(=O)O)c(=O)c2cc(F)c(N3CC4CCCC3CN4C)c(F)c21` (configuration not stated) registered a melting point of more than 300 °C. To `CCOC(=O)c1cnc2c(c(C)nn2-c2ccccc2)c1N(Cc1ccccc1)S(=O)(=O)c1ccc(OC)cc1` belongs 164 to 166 °C.

As for `CNS(=O)(=O)c1ccc2c(c1)C=C(C(=O)O)C(C(F)(F)F)O2` (configuration not stated), the melting point lay in the range of 208 to 209 °C. On to `C=CCN1CCC=C(c2ccc(C(C)(C)CCCCCC)cc2O)C1`, for which the melting point fell in the range of 109 to 110 °C.

As to `Cc1c(-c2ccccc2)oc2cc(NC(=O)C(=O)O)ccc2c1=O`, the melting point came out at 243 °C. Regarding `CC(C)c1cn(C)cc(-c2cccc(C(F)(F)F)c2)c1=O`, the melting point lay in the range of 98.5 to 99.5 °C.

`CCN(CC)C(=O)Nc1ccc(Cn2c(=O)n(C3CCCCC3)c3cc(Cl)ccc32)c(OC)c1`: the melting point came to 190 °C. For `Nc1ncnc2c1ncn2Cc1oc2ccccc2c(=O)c1-c1ccccc1F` the value was 202 to 205 °C; for `COc1ccc(C(=O)C23CC4CC(C2)CC(C(=O)c2ccc(OC)cc2)(C4)C3)cc1`, 148 to 150 °C; for `O=C(c1ccc(NS(=O)(=O)c2ccccc2)cc1)N1CCCCc2ccccc21`, 178 to 182 °C. To `NC(=O)C1CN(Cc2ccccc2)CC1O` (configuration not stated) belongs 128 °C. `N=C(N)Nc1nnc(-c2ccc([N+](=O)[O-])cc2)s1` registered a melting point of 295 to 297 °C.

Consider `COC(=O)[C@H](C)OC(=O)c1cc(-n2c(=O)cc(C(F)(F)F)n(C)c2=O)ccc1Cl`, for which the melting point was in the range of 59 to 60 °C. Regarding `COC(=O)C(C)(C)Nc1ccc(OCc2ccccc2)cc1`, the melting point is less than 50 °C. On to `CCOCc1nc2c(N)nc3cc(N4CCOC4=O)cnc3c2n1CC(C)C`, for which the melting point is 174 to 176 °C. To `[N-]=[N+]=NCCc1c[nH]c(=O)[nH]c1=O` belongs 230 to 235 °C. As to `CCOC(=O)CN(Cc1cccnc1)c1ccc(C(O)(C(F)(F)F)C(F)(F)F)cc1`, the melting point was 55 °C. In turn, `COc1ccc2ccc(N3C(=O)C4=C(SCCO4)C3=O)nc2n1` displayed a melting point of 255 °C. For `Cc1nnc2n1-c1sccc1C(c1ccccc1)=NC2` the value was 224 to 226 °C; for `CCCCc1ccc(N2C(=O)CN(Cc3ccccc3)C2=S)cc1`, 149 to 151 °C; for `O=C(COc1ccc(Cl)cc1)N1CC2COCC2C1` (configuration not stated), 110 °C.

As to `COC(=O)C1CCCN1C(=O)c1ccccc1` (configuration not stated), the melting point was in the range of 88.5 to 90 °C. As to `N#Cc1ccc(COc2ccc(C(=O)NC[C@@H](C(=O)NO)N3CCCCC3)cc2)cc1`, the melting point worked out at 134 °C. As to `CCCc1cc2cc(NC(=O)OCC)ccc2o1`, the melting point fell in the range of 69 to 70 °C. To `Cn1cnc2c1c(=O)n(CCCCCCO)c(=O)n2C` belongs 98 to 100 °C; to `CC(=O)Nc1c(C)c2c(c(C)c1[N+](=O)[O-])OC(C)(C)C2`, 203 to 204 °C. For `O=c1[nH]c2cc(-n3cnc4c3CCCC4)c([N+](=O)[O-])cc2[nH]c1=O` the value was more than 300 °C. In turn, `CNCC1Cc2cc(Cl)cc(-c3cccc(OC)c3OC)c2O1` (configuration not stated) yielded a melting point of 105 to 107 °C.

With `CC(CCC(=O)O)(c1ccc(OCc2ccc3ccccc3c2)cc1)c1ccc(OCc2ccc3ccccc3n2)cc1` (configuration not stated), the melting point fell in the range of 64 to 68 °C. To `CCC(C(=O)N(C)C)C(C#N)(c1ccccc1)c1ccccc1` (configuration not stated) belongs 170 to 172 °C. `CC(C)(C)OC(=O)N[C@@H](Cc1c[nH]c2ccccc12)c1nc2c(C(F)(F)F)cccc2c(O)c1C(=O)Nc1nccs1` yielded a melting point of 270 °C. To `CCc1[nH]c(=O)c(C#N)cc1-c1ccncc1` belongs more than 300 °C; to `CC(C)(C)C1=CC(=Nc2ccc(CC#N)cc2)C=C(C(C)(C)C)C1=O`, 126 to 128 °C.

Regarding `CCCCCCCCCCCCCCCCCCOC(=O)CCCCCCCCCCCCCCCCC`, the melting point was in the range of 47 to 55 °C. For the molecule `Cc1ccc(-c2cc(OCC(=O)N3CCSCC3)c3c(C(F)(F)F)cccc3n2)cc1`, the melting point came out at 154 °C. For the molecule `CNC(=O)Nc1snc(SC)c1C#N`, the melting point amounted to 286 °C. `CC(C)OC(=O)Nc1cccc(O)c1` gave a melting point of 75 to 77 °C. For `Cc1cc(C)c2ncc(N(Cc3cc(C(C)(C)C)c(O)c(C(C)(C)C)c3)C(=O)Nc3ccc(F)cc3F)c(-c3ccccc3Cl)c2c1`, the melting point lay in the range of 124 to 126 °C. To `CCCCCNC(=S)NC(Cc1ccc(OC)cc1)=Nc1ccccc1` belongs 125 to 126 °C; to `CCOC(=O)C(NC(=O)CC(=O)C=Cc1ccccc1[N+](=O)[O-])C(C)C` (configuration not stated), 106 to 107 °C; to `Cc1nc(-c2ccc(C(F)(F)F)cc2)sc1N`, 146 to 148 °C.

Molecule `O=C(O)c1cc(-c2ccc(OCc3ccccc3)cc2)nn1Cc1ccccc1` registered a melting point of 207 to 208 °C. For `CCc1ncn(Nc2cccc(C)c2)c1-c1ccccc1` the value was 158 to 160 °C; for `c1cnn(Cc2ccc3c(c2)-c2[nH]nc(-c4ccsc4)c2C3)n1`, 217 to 219 °C. As for `CCC(C)(CC)c1cc(NC(=O)c2c(OC)cccc2OC)sn1`, the melting point was in the range of 243 to 244 °C. Molecule `CCCN1N=C2C(=Cc3cccc(C(F)(F)F)c3)CS(=O)(=O)CC2C1c1cccc(C(F)(F)F)c1` (configuration not stated) yielded a melting point of 190 to 191 °C. To `CNc1ccc(Cl)cc1C(O)c1ccccc1Cl` (configuration not stated) belongs 106 to 108 °C. In turn, `C=CCN1c2ccccc2-c2noc3c2C1CCC3` (configuration not stated) had a melting point of 114 to 117 °C.

As for `COc1ccccc1N1CCN(CCC(N)=O)CC1`, the melting point was 145 to 146 °C. Regarding `O=C(O)c1ccc(N2C(=O)C3C4C=CC(CC4)C3C2=O)cc1` (configuration not stated), the melting point was 269 °C. To `CCOCN1C(C)=C(C(=O)OC)C(c2cccc([N+](=O)[O-])c2)C(C(=O)OCCBr)=C1C` (configuration not stated) belongs 72.5 to 74 °C; to `COc1cc(OC)c(C2CCN(C)CC2=O)c(OC)c1` (single isomer, unassigned; (+)), 110 to 112 °C; to `N#CCOc1ccccc1OCC#N`, 85 to 85.5 °C.

As to `CCCCCCCCCCCCCCCCCC(=O)N[C@H]1CCCNC(=O)C1`, the melting point was in the range of 87 to 88 °C. The molecule `COc1cc2ncnc(N3CCCc4ccccc43)c2cc1SC` came in with a melting point of 193 to 196 °C. As for `COc1ncc(C(F)(F)F)cc1-c1cccn2nc(Nc3ccc(C4CCN(C(=O)OC(C)(C)C)CC4)cc3)nc12`, the melting point was 142 to 144 °C. To `O=[N+]([O-])c1ccc(Oc2ccc(S(=O)(=O)c3ccc(Oc4ccc([N+](=O)[O-])c(O)c4)cc3)cc2)cc1O` belongs 220 to 222 °C.

`CC(C)(CCCCCC(=O)CCCCCC(C)(C)C(=O)O)C(=O)O` came in with a melting point of 74.5 to 76 °C.

The molecule `c1ccc2c(c1)CNc1cccnc1O2` returned a melting point of 172 to 174 °C. In turn, `Nc1c(Cl)cc(C(=CC(=O)N2CCOCC2)c2ccc(Cl)cc2)cc1Cl` showed a melting point of 140 to 144 °C. As to `CC(C)(C)OC(=O)N[C@H]1CN(Cc2ccccc2)[C@@H]2CCCO[C@H]12` (relative stereo), the melting point was in the range of 82 to 84 °C. For `CC(C)(C)OC(=O)N(Cc1ccccc1)S(N)(=O)=O` the value was 127 °C; for `Cc1nc2cc3c(cc2nc1C(=O)OC(C)(C)C)OC(C)(C)O3`, 104 to 105 °C. To `COCCCn1c(C(=O)O)cc2c3c(c(-c4ccccc4Cl)cc21)C(=O)NC3=O` belongs 272 to 274 °C; to `CNC(=O)NC(=O)C(CC1CCCC1)c1ccc(S(C)(=O)=O)c([N+](=O)[O-])c1` (configuration not stated), 241 to 242 °C.

In the case of `NS(=O)(=O)c1cnc(NC(=O)c2cnn3c(C(F)F)cc(-c4ccc(C(F)(F)F)cc4)nc23)s1`, the melting point is 311 °C. Molecule `COC(=O)C(=O)c1nsc(NC(=O)OCc2ccccc2)n1` registered a melting point of 144 to 147 °C. For `Cc1ccc(C(=O)c2ccc([N+](=O)[O-])cc2)cc1` the value was 122 to 123 °C; for `Oc1cccc(C2CCCN2Cc2cccnc2)c1` (configuration not stated), 129 to 131 °C. The molecule `CCCS(=O)(=O)c1ccc(NC(=O)CCCCCCCCCC=C(F)F)cc1` returned a melting point of 67 to 70 °C. For `COCOc1cc(Cl)ccc1-c1cc(-c2cccc(C(=O)O)c2)c(C#N)c(NC(=O)c2ccco2)n1`, the melting point was 214 to 216 °C. To `Cc1nnc(-c2ccc3occ(-c4ccccn4)c3c2)o1` belongs 148 to 149 °C; to `CC(=O)Oc1ccc(-c2cncnc2Cl)cc1OC(C)=O`, 108 °C; to `C[N+]([O-])(c1cnccc1[N+](=O)[O-])n1cccc1` (configuration not stated), 135 to 140 °C.

`Nc1ccc(S(=O)(=O)c2cc(-c3cccc([N+](=O)[O-])c3)nc(N3CCCC3)c2)cc1` had a melting point of 249 to 251 °C. As to `CCC12CC(O)C(O)(c3ccccc3)CC1CC(O)c1cc(O)ccc12` (configuration not stated), the melting point lay within 185 to 187 °C.

In turn, `CCOC(=O)C1=C(C)NC(C)=C(C(=O)OCC2CC2)C1c1cccc([N+](=O)[O-])c1` (configuration not stated) had a melting point of 169 to 170 °C. To `CCCc1cc2c(=O)n3cc(C(=O)O)ccc3nc2s1` belongs 250 to 254 °C.
